Consider six compounds from ChEMBL document CHEMBL5724914, “Linking interpersonal differences in gut microbiota composition and drug biotransformation activity” (2024).

The nature of data set [1]: The drug is tested on Z-008 corresponding to metagenome with ENA study accession number: PRJEB37062 and ENA sample accession number: ERS12561808 for biotransformation under anaerobic condition. The drug concentrations were measured over 9 timepoints collected between 0 and 24 hours of incubation by liquid-chromatography-coupled mass spectrometry (LC–MS). Conditions: 2 µM.

Data set [2] in a line: The drug is tested on Z-026 corresponding to metagenome with ENA study accession number: PRJEB37062 and ENA sample accession number: ERS12561825 for biotransformation under anaerobic condition. The drug concentrations were measured over 9 timepoints collected between 0 and 24 hours of incubation by liquid-chromatography-coupled mass spectrometry (LC–MS). Conditions: 2 µM.

The conditions of data set [3]: human gut metagenome, 24 h, 2 µM.
The nature of data set [4]: The drug is tested on Z-003 corresponding to pig gut metagenome with ENA study accession number: PRJEB37062 and ENA sample accession number: ERS12561803 for biotransformation under anaerobic condition. The drug concentrations were measured over 9 timepoints collected between 0 and 24 hours of incubation by liquid-chromatography-coupled mass spectrometry (LC–MS). Conditions: 2 µM.

The conditions of data set [5]: human gut metagenome, 24 h, 2 µM. The source holds these as a separate data set.
Data set [6] can be described thus: The drug is tested on Z-014 corresponding to rat gut metagenome with ENA study accession number: PRJEB37062 and ENA sample accession number: ERS12561814 for biotransformation under anaerobic condition. The drug concentrations were measured over 9 timepoints collected between 0 and 24 hours of incubation by liquid-chromatography-coupled mass spectrometry (LC–MS). The conditions noted are these: 2 µM.

The conditions of data set [7]: human gut metagenome, 24 h, 2 µM. This is another data set of the same source.
Data set [8] can be described thus: The drug is tested on WLS-010 corresponding to human gut metagenome with ENA study accession number: PRJEB37062 and ENA sample accession number: ERS12561743 for biotransformation under anaerobic condition. The drug concentrations were measured over 9 timepoints collected between 0 and 24 hours of incubation by liquid-chromatography-coupled mass spectrometry (LC–MS). Conditions: 2 µM.

For data set [9] the following is noted: human gut metagenome, 24 h, 2 µM. This is another data set of the same source.
Data set [10] in a line: The drug is tested on Z-006 corresponding to mouse gut metagenome with ENA study accession number: PRJEB37062 and ENA sample accession number: ERS12561806 for biotransformation under anaerobic condition. The drug concentrations were measured over 9 timepoints collected between 0 and 24 hours of incubation by liquid-chromatography-coupled mass spectrometry (LC–MS). The conditions noted are these: 2 µM.

The nature of data set [11]: The drug is tested on Z-010 corresponding to metagenome with ENA study accession number: PRJEB37062 and ENA sample accession number: ERS12561810 for biotransformation under anaerobic condition. The drug concentrations were measured over 9 timepoints collected between 0 and 24 hours of incubation by liquid-chromatography-coupled mass spectrometry (LC–MS). Conditions: 2 µM.

The conditions of data set [12]: human gut metagenome, 24 h, 2 µM. This is another data set of the same source.
Data set [13] in a line: The drug is tested on WLS-098 corresponding to human gut metagenome with ENA study accession number: PRJEB37062 and ENA sample accession number: ERS12561754 for biotransformation under anaerobic condition. The drug concentrations were measured over 9 timepoints collected between 0 and 24 hours of incubation by liquid-chromatography-coupled mass spectrometry (LC–MS). The conditions noted are these: 2 µM.

For data set [14] the following is noted: human gut metagenome, 24 h, 2 µM. The source holds these as a separate data set.
Data set [15] can be described thus: The drug is tested on WLS-077 corresponding to human gut metagenome with ENA study accession number: PRJEB37062 and ENA sample accession number: ERS12561750 for biotransformation under anaerobic condition. The drug concentrations were measured over 9 timepoints collected between 0 and 24 hours of incubation by liquid-chromatography-coupled mass spectrometry (LC–MS). The conditions noted are these: 2 µM.

Data set [16] can be described thus: The drug is tested on WLS-310 corresponding to human gut metagenome with ENA study accession number: PRJEB37062 and ENA sample accession number: ERS12561785 for biotransformation under anaerobic condition. The drug concentrations were measured over 9 timepoints collected between 0 and 24 hours of incubation by liquid-chromatography-coupled mass spectrometry (LC–MS). Conditions: 2 µM.

A short description of data set [17]: The drug is tested on Z-012 corresponding to metagenome with ENA study accession number: PRJEB37062 and ENA sample accession number: ERS12561812 for biotransformation under anaerobic condition. The drug concentrations were measured over 9 timepoints collected between 0 and 24 hours of incubation by liquid-chromatography-coupled mass spectrometry (LC–MS). The conditions noted are these: 2 µM.

The conditions of data set [18]: human gut metagenome, 24 h, 2 µM. The source holds these as a separate data set.
For data set [19] the following is noted: human gut metagenome, 24 h, 2 µM. This is another data set of the same source.
For data set [20] the following is noted: human gut metagenome, 24 h, 2 µM. The source holds these as a separate data set.
Also: call rule not given here.

Turning to `CNC(=C[N+](=O)[O-])NCCSCc1csc(CN(C)C)n1` [NIZATIDINE], the “Bacterial Biotransformation” value in [1] is “Compound NOT metabolized”; in data set [2] it was “Compound NOT metabolized”; in data set [3] it was “Compound metabolized”; in data set [4] it was “Compound NOT metabolized”; in data set [5], “Compound metabolized”; in data set [6] it was “Compound NOT metabolized”. For the same compound, the “Bacterial Biotransformation” value in data set [7], in data set [8], in data set [9], in data set [10], in data set [11] and in data set [12] was “Compound NOT metabolized” each time. For the same compound, the “Bacterial Biotransformation” value is given as “Compound metabolized” in [13]; “Compound metabolized” in data set [14]; “Compound NOT metabolized” in data set [15]; “Compound metabolized” in data set [16]; “Compound NOT metabolized” in data set [17]; “Compound NOT metabolized” in [18]. The “Bacterial Biotransformation” value in data set [19] and in [20] was “Compound NOT metabolized” throughout.

Turning to `O=C(O)CCc1nc(-c2ccccc2)c(-c2ccccc2)o1` [OXAPROZIN], the “Bacterial Biotransformation” value in [1] was “Compound NOT metabolized”; in data set [2], “Compound NOT metabolized”; in [3] it was “Compound metabolized”; in data set [4], “Compound metabolized”; in data set [5] it was “Compound metabolized”; in data set [6], “Compound NOT metabolized”. Besides, the “Bacterial Biotransformation” value is listed as “Compound metabolized” in [7]; “Compound metabolized” in [8]; “Compound metabolized” in data set [9]; “Compound NOT metabolized” in data set [10]; “Compound metabolized” in [11]; “Compound metabolized” in [12]. The “Bacterial Biotransformation” value in [13] is listed as “Compound metabolized”; in data set [14], “Compound metabolized”; in data set [15] it was “Compound metabolized”; in data set [16] it was “Compound metabolized”; in data set [17], “Compound NOT metabolized”; in data set [18], “Compound metabolized”. Moreover, the “Bacterial Biotransformation” value is “Compound metabolized” in [19] and “Compound NOT metabolized” in data set [20].

Turning to `CC(C)(C)NC[C@H](O)COc1ccccc1C1CCCC1.CC(C)(C)NC[C@H](O)COc1ccccc1C1CCCC1.O=S(=O)(O)O` [PENBUTOLOL SULFATE], the “Bacterial Biotransformation” value is listed as “Compound NOT metabolized” in data set [1]; “Compound NOT metabolized” in data set [2]; “Compound metabolized” in [3]; “Compound metabolized” in data set [4]; “Compound metabolized” in data set [5]; “Compound NOT metabolized” in [6]. Moreover, the “Bacterial Biotransformation” value in data set [7] is on record as “Compound metabolized”; in [8], “Compound metabolized”; in data set [9] it was “Compound metabolized”; in data set [10], “Compound NOT metabolized”; in data set [11] it was “Compound metabolized”; in [12] it was “Compound metabolized”. Besides, the “Bacterial Biotransformation” value in data set [13] was “Compound metabolized”; in data set [14] it was “Compound metabolized”; in [15], “Compound metabolized”; in data set [16], “Compound metabolized”; in data set [17], “Compound NOT metabolized”; in data set [18], “Compound metabolized”. The “Bacterial Biotransformation” value in data set [19] and in data set [20] was “Compound metabolized” throughout.

Regarding `CCOc1ccc(NC(C)=O)cc1` [PHENACETIN], the “Bacterial Biotransformation” value in data set [1], in data set [2], in data set [3], in data set [4], in [5] and in [6] was “Compound NOT metabolized” each time. In addition, the “Bacterial Biotransformation” value in [7], in [8], in data set [9], in data set [10], in data set [11] and in data set [12] was “Compound NOT metabolized” each time. In addition, the “Bacterial Biotransformation” value in data set [13], in data set [14], in data set [15], in data set [16], in [17] and in data set [18] was “Compound NOT metabolized” throughout. Also, the “Bacterial Biotransformation” value in [19] and in [20] was “Compound NOT metabolized” throughout.

`Nc1ccc(/N=N/c2ccccc2)c(N)n1` [PHENAZOPYRIDINE]: the “Bacterial Biotransformation” value in data set [1], in [2], in [3], in data set [4], in data set [5] and in data set [6] was “Compound metabolized” in each case. Also, the “Bacterial Biotransformation” value in data set [7], in [8], in data set [9], in data set [10], in data set [11] and in data set [12] was “Compound metabolized” in each case. Further, the “Bacterial Biotransformation” value in [13], in [14], in data set [15], in data set [16], in [17] and in [18] was “Compound metabolized” in each case. In addition, the “Bacterial Biotransformation” value in data set [19] and in data set [20] was “Compound metabolized” throughout.

For `CC(C(=O)O)c1ccc2c(c1)Cc1cccnc1O2` (stereo not given) [PRANOPROFEN], the “Bacterial Biotransformation” value is reported as “Compound metabolized” in data set [1]; “Compound NOT metabolized” in data set [2]; “Compound metabolized” in [3]; “Compound metabolized” in data set [4]; “Compound metabolized” in data set [5]; “Compound NOT metabolized” in [6]. The “Bacterial Biotransformation” value in [7], in data set [8], in data set [9], in data set [10], in data set [11] and in data set [12] was “Compound metabolized” each time. Further, the “Bacterial Biotransformation” value in [13], in data set [14], in [15], in data set [16], in [17] and in data set [18] was “Compound metabolized” throughout. Moreover, the “Bacterial Biotransformation” value in data set [19] and in data set [20] was “Compound metabolized” each time.
